This is an account of results in patent US11225505B2, “Antimicrobial polymyxin derivative compounds” (MONASH UNIVERSITY, priority 2015, dated 2022).

In brackets after ≈: the same amount, converted by molar mass. Where a SMILES comes first, the peptide text is derived from it. Bridges are numbered along the chain shown (N, C = ends). [ ]: non-standard residue; d: D form. The star is where a group is joined. Propanoyl(3-indol-3-yl) = O=C(CCc1c[nH]c2ccccc12)*; Benzothiazole(2-CH2CH2CO) = O=C(CCc1nc2ccccc2s1)*; X6 = Cn1c(C(=O)*)cc2cc(Cl)ccc21; X20 = O=C(c1ccc(C(F)(F)F)s1)*; X42 = O=C(c1nc2ccccc2[nH]1)*; X36 = O=C(c1ncc(Br)cc1Br)*; X1 = O=C(c1ncc(Cl)cc1Cl)*; Dab = NCC[C@H](N)C(=O)O; Abu = CC[C@H](N)C(=O)O; Dap = NC[C@H](N)C(=O)O

What all share (type): cell-based
The test system of assay [1] is Enterobacter cloacae FADDI-EC006. Particulars: FADDI-EC006. In outline: (§1)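 Broth microdilution, CAMHB, per CLSI M100-S24; lipopeptides as TFA salts; polymyxin B sulphate control. Read-out: MIC. Strains are polymyxin-susceptible; PA022 and AB034 are MDR clinical isolates.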
Assay [2] has as its system Enterobacter cloacae FADDI-EC003. The following applies: FADDI-EC003. The method, boiled down: as §1
Assay [3] has as its system Klebsiella pneumoniae Kp BM1. Particulars: Kp BM1. The method, boiled down: (§2)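 Following CLSI procedure M100-S24, minimum inhibitory concentrations of trifluoroacetate lipopeptides are measured in cation-adjusted Mueller-Hinton medium by broth microdilution, alongside a polymyxin B sulphate control.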
Assay [4] deals with Enterobacter cloacae FADDI-EC001. The following applies: FADDI-EC001. In outline: as §2
Assay [5] relates to Acinetobacter baumannii FADDI-AB034. The following applies: FADDI-AB034. The method, boiled down:
as §1

Assay [6] relates to Pseudomonas aeruginosa FADDI-PA022. The following applies: FADDI-PA022. The method, boiled down:
as §1

Assay [7] deals with Pseudomonas aeruginosa FADDI-PA038. Particulars: FADDI-PA038. In outline: as §1
The test system of assay [8] is Acinetobacter baumannii ATCC 17978. The following applies: ATCC 17978. The method, boiled down: as §1
Assay [9] deals with Pseudomonas aeruginosa FADDI-PA01. Particulars: FADDI-. The method, boiled down:
as §1

Assay [10] has as its system Pseudomonas aeruginosa ATCC 27853. The following applies: ATCC 27853. In outline: as §1
In assay [11] the test system is Klebsiella pneumoniae FADDI-KP032. Particulars: FADDI-KP032. The method, boiled down: as §1
Assay [12] deals with Klebsiella pneumoniae FADDI-KP022. The following applies: FADDI-KP022. In outline:
as §1

The subject of assay [13] is Acinetobacter baumannii FADDI-AB030. Briefly: microbe, parasite or virus in culture. Particulars: FADDI-AB030. The method, boiled down: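 Lipopeptide TFA salts tested against the multidrug-resistant clinical isolate by CLSI (M100-S24) broth microdilution in cation-adjusted Mueller-Hinton broth, with polymyxin B sulphate as control; MIC read.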

Take `CC[C@@H]1NC(=O)[C@@H](CC(C)C)NC(=O)[C@H](CCN)NC(=O)[C@@H](NC(=O)[C@H](CN)NC(=O)[C@@H](NC(=O)[C@H](CCN)NC(=O)c2cc3cc(Cl)ccc3n2C)[C@@H](C)O)CCNC(=O)[C@H]([C@@H](C)O)NC(=O)[C@H](CCN)NC(=O)[C@H](CCN)NC1=O` [Compound 58] (X6-[Dab]T[Dap][Dab][Dab][dL][Abu][Dab][Dab]T; lactam 4-C): the Minimum inhibitory concentration in assay [1] is 0.5 µg/mL (≈ 0.424 µM); in [2], <0.125 µg/mL; in assay [3] it was 0.25 µg/mL (≈ 0.212 µM); in assay [4], 1 µg/mL (≈ 0.848 µM); in assay [5], 0.5 µg/mL (≈ 0.424 µM); in assay [6] it was 0.5 µg/mL (≈ 0.424 µM). For the same compound, the Minimum inhibitory concentration in [7] was 2 µg/mL (≈ 1.7 µM); in assay [8] it was 0.25 µg/mL (≈ 0.212 µM); in assay [9] it was 0.5 µg/mL (≈ 0.424 µM); in assay [10], 0.5 µg/mL (≈ 0.424 µM); in assay [11], 0.5 µg/mL (≈ 0.424 µM); in assay [12], <0.125 µg/mL. The same compound returned a Minimum inhibitory concentration in assay [13] of 0.25 µg/mL (≈ 0.212 µM).

For the compound `CC[C@@H]1NC(=O)[C@@H](CC(C)C)NC(=O)[C@H](CCN)NC(=O)[C@@H](NC(=O)[C@H](CN)NC(=O)[C@@H](NC(=O)[C@H](CCN)NC(=O)CCc2nc3ccccc3s2)[C@@H](C)O)CCNC(=O)[C@H]([C@@H](C)O)NC(=O)[C@H](CCN)NC(=O)[C@H](CCN)NC1=O` [Compound 72] ({Benzothiazole(2-CH2CH2CO)}-[Dab]T[Dap][Dab][Dab][dL][Abu][Dab][Dab]T; lactam 4-C), the Minimum inhibitory concentration is <0.125 µg/mL in assay [1]; <0.125 µg/mL in assay [2]; <0.125 µg/mL in [3]; <0.125 µg/mL in assay [4]; 0.5 µg/mL (≈ 0.425 µM) in assay [5]; 0.5 µg/mL (≈ 0.425 µM) in assay [6]. In addition, the Minimum inhibitory concentration in [7] is 0.5 µg/mL (≈ 0.425 µM); in assay [8], 0.5 µg/mL (≈ 0.425 µM); in assay [9] it was 0.5 µg/mL (≈ 0.425 µM); in assay [10], 0.5 µg/mL (≈ 0.425 µM); in assay [11] it was <0.125 µg/mL; in assay [12], <0.125 µg/mL. In assay [13], this compound registered a Minimum inhibitory concentration of 0.5 µg/mL (≈ 0.425 µM).

As for `CC[C@@H]1NC(=O)[C@@H](CC(C)C)NC(=O)[C@H](CCN)NC(=O)[C@@H](NC(=O)[C@H](CN)NC(=O)[C@@H](NC(=O)[C@H](CCN)NC(=O)CCc2c[nH]c3ccccc23)[C@@H](C)O)CCNC(=O)[C@H]([C@@H](C)O)NC(=O)[C@H](CCN)NC(=O)[C@H](CCN)NC1=O` [Compound 104] ({Propanoyl(3-indol-3-yl)}-[Dab]T[Dap][Dab][Dab][dL][Abu][Dab][Dab]T; lactam 4-C), the Minimum inhibitory concentration in [1] is 0.25 µg/mL (≈ 0.216 µM); in assay [2], <0.125 µg/mL; in assay [3], <0.125 µg/mL; in [4], <0.125 µg/mL; in assay [5] it was 0.5 µg/mL (≈ 0.432 µM); in [6], 0.25 µg/mL (≈ 0.216 µM). The Minimum inhibitory concentration is 0.5 µg/mL (≈ 0.432 µM) in assay [7]; 0.5 µg/mL (≈ 0.432 µM) in [8]; <0.125 µg/mL in assay [9]; 0.25 µg/mL (≈ 0.216 µM) in assay [10]; <0.125 µg/mL in assay [11]; <0.125 µg/mL in [12]. In assay [13], this compound returned a Minimum inhibitory concentration of 0.5 µg/mL (≈ 0.432 µM).

On to `CC[C@@H]1NC(=O)[C@@H](CC(C)C)NC(=O)[C@H](CCN)NC(=O)[C@@H](NC(=O)[C@H](CN)NC(=O)[C@@H](NC(=O)[C@H](CCN)NC(=O)c2ccc(C(F)(F)F)s2)[C@@H](C)O)CCNC(=O)[C@H]([C@@H](C)O)NC(=O)[C@H](CCN)NC(=O)[C@H](CCN)NC1=O` [Compound 86] (X20-[Dab]T[Dap][Dab][Dab][dL][Abu][Dab][Dab]T; lactam 4-C), for which the Minimum inhibitory concentration in assay [1] is 0.25 µg/mL (≈ 0.215 µM); in assay [2] it was 0.25 µg/mL (≈ 0.215 µM); in [3] it was 0.25 µg/mL (≈ 0.215 µM); in assay [4], <0.125 µg/mL; in [5] it was <0.125 µg/mL; in assay [6] it was 0.5 µg/mL (≈ 0.429 µM). Also, the Minimum inhibitory concentration in assay [7] is 1 µg/mL (≈ 0.858 µM); in assay [8], <0.125 µg/mL; in [9], 0.5 µg/mL (≈ 0.429 µM); in assay [10], 0.5 µg/mL (≈ 0.429 µM); in assay [11], <0.125 µg/mL; in assay [12] it was <0.125 µg/mL. Besides, the Minimum inhibitory concentration in [13] is 0.25 µg/mL (≈ 0.215 µM).

In the case of `CC(C)C[C@H]1NC(=O)[C@H](CCN)NC(=O)[C@@H](NC(=O)[C@H](CN)NC(=O)[C@@H](NC(=O)[C@H](CCN)NC(=O)c2ncc(Cl)cc2Cl)[C@@H](C)O)CCNC(=O)[C@H]([C@@H](C)O)NC(=O)[C@H](CCN)NC(=O)[C@H](CCN)NC(=O)[C@H](C)NC1=O` [Compound 10] (X1-[Dab]T[Dap][Dab][Dab][dL]A[Dab][Dab]T; lactam 4-C), the Minimum inhibitory concentration in assay [1] turned out to be 0.5 µg/mL (≈ 0.436 µM); in [2] it was 0.25 µg/mL (≈ 0.218 µM); in assay [3], 4 µg/mL (≈ 3.49 µM); in assay [4], 0.25 µg/mL (≈ 0.218 µM); in [5] it was 4 µg/mL (≈ 3.49 µM); in assay [6], 0.5 µg/mL (≈ 0.436 µM). For the same compound, the Minimum inhibitory concentration in assay [7] came out at 1 µg/mL (≈ 0.872 µM); in [8] it was 4 µg/mL (≈ 3.49 µM); in assay [9] it was 0.5 µg/mL (≈ 0.436 µM); in assay [10], 0.25 µg/mL (≈ 0.218 µM); in assay [11], 0.5 µg/mL (≈ 0.436 µM); in [12], 0.25 µg/mL (≈ 0.218 µM). In assay [13], this compound gave a Minimum inhibitory concentration of 8 µg/mL (≈ 6.97 µM).

With `CC[C@@H]1NC(=O)[C@@H](CC(C)C)NC(=O)[C@H](CCN)NC(=O)[C@@H](NC(=O)[C@H](CN)NC(=O)[C@@H](NC(=O)[C@H](CCN)NC(=O)c2nc3ccccc3[nH]2)[C@@H](C)O)CCNC(=O)[C@H]([C@@H](C)O)NC(=O)[C@H](CCN)NC(=O)[C@H](CCN)NC1=O` [Compound 47] (X42-[Dab]T[Dap][Dab][Dab][dL][Abu][Dab][Dab]T; lactam 4-C), the Minimum inhibitory concentration in [1] was 0.5 µg/mL (≈ 0.442 µM); in assay [2], <0.125 µg/mL; in assay [3] it was 0.25 µg/mL (≈ 0.221 µM); in assay [4] it was <0.125 µg/mL; in assay [5], 1 µg/mL (≈ 0.884 µM); in assay [6] it was 0.25 µg/mL (≈ 0.221 µM). Further, the Minimum inhibitory concentration is 0.5 µg/mL (≈ 0.442 µM) in assay [7]; 1 µg/mL (≈ 0.884 µM) in assay [8]; <0.125 µg/mL in assay [9]; 0.5 µg/mL (≈ 0.442 µM) in assay [10]; 0.25 µg/mL (≈ 0.221 µM) in [11]; <0.125 µg/mL in assay [12]. The compound also showed a Minimum inhibitory concentration in assay [13] of 0.25 µg/mL (≈ 0.221 µM).

Turning to `CC(C)C[C@H]1NC(=O)[C@H](CCN)NC(=O)[C@@H](NC(=O)[C@H](CN)NC(=O)[C@@H](NC(=O)[C@H](CCN)NC(=O)c2ncc(Br)cc2Br)[C@@H](C)O)CCNC(=O)[C@H]([C@@H](C)O)NC(=O)[C@H](CCN)NC(=O)[C@H](CCN)NC(=O)[C@H]([C@@H](C)O)NC1=O` [Compound 29] (X36-[Dab]T[Dap][Dab][Dab][dL]T[Dab][Dab]T; lactam 4-C), the Minimum inhibitory concentration in assay [1] is <0.125 µg/mL; in assay [2] it was 0.25 µg/mL (≈ 0.197 µM); in assay [3] it was 0.5 µg/mL (≈ 0.395 µM); in [4], 0.25 µg/mL (≈ 0.197 µM); in [5] it was 2 µg/mL (≈ 1.58 µM); in assay [6] it was 0.25 µg/mL (≈ 0.197 µM). Besides, the Minimum inhibitory concentration was 1 µg/mL (≈ 0.79 µM) in assay [7]; 2 µg/mL (≈ 1.58 µM) in [8]; 0.5 µg/mL (≈ 0.395 µM) in [9]; 1 µg/mL (≈ 0.79 µM) in assay [10]; 1 µg/mL (≈ 0.79 µM) in assay [11]; 0.25 µg/mL (≈ 0.197 µM) in [12]. In [13], this compound had a Minimum inhibitory concentration of 1 µg/mL (≈ 0.79 µM).
